Results from the supplement of paper PMC10307832.

Columns and labels:
Experiment in all cases: relative viability (nuclei count vs DMSO), 5 days (fraction); higher = more cells survive
Selisistat + Alpelisib = compound: C1CC(C2=C(C1)C3=C(N2)C=CC(=C3)Cl)C(=O)N [Selisistat] + Cc1nc(NC(=O)N2CCC[C@H]2C(N)=O)sc1-c1ccnc(C(C)(C)C(F)(F)F)c1 [Alpelisib] (partner 2 µM)
Method in brief: (§1)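 The day after seeding in 1536-well plates, lung cancer cell lines were treated by pin tool with a single drug, or with a fixed anchor-drug dose together with five library-drug doses (not always all listed) in √10 steps. After 5 days, a combined fix-and-stain solution (final 0.05% Triton X-100, 1% formaldehyde, 1 ug/ml Hoechst) was added. Nuclei counted on 4× images gave relative viability as treated counts over vehicle counts, reported as the median of duplicate plates.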

Selisistat + Dasatinib = compound: C1CC(C2=C(C1)C3=C(N2)C=CC(=C3)Cl)C(=O)N [Selisistat] + Cc1nc(Nc2ncc(C(=O)Nc3c(C)cccc3Cl)s2)cc(N2CCN(CCO)CC2)n1 [Dasatinib] (partner 0.075 µM)
Method in brief: as §1

Serdemetan + Foretinib = compound: c1ccc2c(CCNc3ccc(Nc4ccncc4)cc3)c[nH]c2c1 [Serdemetan] + COc1cc2c(Oc3ccc(NC(=O)C4(C(=O)Nc5ccc(F)cc5)CC4)cc3F)ccnc2cc1OCCCN1CCOCC1 [Foretinib] (partner 0.25 µM)
Method in brief: as §1

Serdemetan + Crizotinib = compound: c1ccc2c(CCNc3ccc(Nc4ccncc4)cc3)c[nH]c2c1 [Serdemetan] + C[C@@H](Oc1cc(-c2cnn(C3CCNCC3)c2)cnc1N)c1c(Cl)ccc(F)c1Cl [Crizotinib] (partner 1 µM)
Method in brief: as §1

Cell Line | relative viability (Selisistat + Alpelisib; first compound 0.4 µM) | relative viability (Selisistat + Alpelisib; first compound 1.265 µM) | relative viability (Selisistat + Alpelisib; first compound 4 µM) | relative viability (Selisistat + Alpelisib; first compound 12.65 µM) | relative viability (Selisistat + Alpelisib; first compound 40 µM) | relative viability (Selisistat + Dasatinib; first compound 0.4 µM) | relative viability (Selisistat + Dasatinib; first compound 1.265 µM) | relative viability (Selisistat + Dasatinib; first compound 4 µM) | relative viability (Selisistat + Dasatinib; first compound 12.65 µM) | relative viability (Selisistat + Dasatinib; first compound 40 µM) | relative viability (Serdemetan + Foretinib; first compound 0.04 µM) | relative viability (Serdemetan + Foretinib; first compound 0.1265 µM) | relative viability (Serdemetan + Foretinib; first compound 0.4 µM) | relative viability (Serdemetan + Foretinib; first compound 1.265 µM) | relative viability (Serdemetan + Foretinib; first compound 4 µM) | relative viability (Serdemetan + Crizotinib; first compound 0.04 µM) | relative viability (Serdemetan + Crizotinib; first compound 0.1265 µM) | relative viability (Serdemetan + Crizotinib; first compound 0.4 µM) | relative viability (Serdemetan + Crizotinib; first compound 1.265 µM) | relative viability (Serdemetan + Crizotinib; first compound 4 µM)
HCC-78 | 0.439 | 0.367 | 0.349 | 0.34 | 0.278 | 0.486 | 0.628 | 0.293 | 0.421 | 0.414 | 0.531 | 0.524 | 0.463 | 0.422 | 0.426 | 0.342 | 0.325 | 0.322 | 0.321 | 0.322
HCC-366 | 0.341 | 0.337 | 0.268 | 0.397 | 0.354 | 0.591 | 0.606 | 0.297 | 0.599 | 0.588 | 0.948 | 0.812 | 0.197 | 0.073 | 0.0559 | 0.528 | 0.412 | 0.117 | 0.0254 | 0.0545
HCC-827 | 0.98 | 0.976 | 0.919 | 0.999 | 0.978 | 0.393 | 0.38 | 0.306 | 0.421 | 0.301 | 0.991 | 0.948 | – | 0.594 | 0.62 | 0.948 | 0.867 | – | 0.791 | 0.615
HOP-62 | 0.796 | 1.02 | 1.06 | 0.944 | 1 | 0.677 | 0.626 | 0.507 | 0.642 | 0.664 | 1.04 | 1.08 | 1.1 | 0.796 | 0.693 | 0.719 | 0.995 | 0.684 | 0.857 | 0.494
IA-LM | 0.882 | 0.79 | 0.545 | 0.74 | 0.696 | – | – | – | – | – | 1.04 | 1.06 | 0.877 | 0.999 | 0.414 | 0.898 | 0.767 | 0.813 | 0.465 | 0.357
LC-2-ad | 1.02 | 0.853 | 0.89 | 0.848 | 0.901 | 0.611 | – | 0.456 | 0.459 | 0.569 | 0.883 | 0.943 | 0.831 | 0.748 | 0.86 | 0.455 | 0.429 | 0.39 | 0.394 | 0.407
LCLC-97TM1 | 0.233 | 0.229 | 0.278 | 0.275 | 0.219 | 0.8 | 0.887 | – | 0.889 | 0.944 | 0.935 | 0.899 | 0.918 | – | 0.767 | 0.361 | 0.314 | 0.351 | 0.233 | 0.189
LCLC-103H | 1.03 | 0.963 | 0.99 | 0.92 | 0.94 | 0.527 | 0.475 | 0.456 | 0.507 | 0.548 | 0.697 | 0.81 | 0.647 | 0.556 | 0.569 | 0.977 | 1.12 | 0.979 | 0.94 | 0.995
LK-2 | 1.05 | 0.968 | 0.981 | 0.989 | 1.01 | 0.211 | 0.307 | 0.322 | 0.266 | 0.287 | 1.29 | 1.13 | 1.47 | 1.16 | 0.41 | 0.217 | 0.265 | 0.205 | 0.204 | 0.252
LOU-NH91 | 0.71 | 0.681 | 0.619 | 0.71 | 0.723 | 0.611 | 0.54 | 0.515 | 0.534 | 0.598 | 0.928 | 0.927 | 0.63 | 0.952 | 0.873 | 0.733 | 0.738 | – | 0.719 | 0.699
LU99A | 0.538 | 0.553 | 0.565 | 0.505 | 0.514 | 0.46 | 0.634 | 0.606 | 0.546 | 0.655 | 0.881 | 0.702 | 0.487 | 0.245 | 0.223 | 0.521 | 0.529 | 0.317 | 0.187 | 0.17
NCI-H522 | – | – | – | – | – | 0.736 | 0.644 | 0.784 | 0.803 | 0.759 | – | – | – | – | – | – | – | – | – | –
NCI-H1299 | 1.02 | 1.05 | 1.14 | 1.03 | 1.03 | – | – | – | – | – | 1.05 | 1.07 | 1.02 | 0.92 | 0.755 | 0.898 | 0.947 | 0.905 | 0.866 | 0.716
NCI-H1395 | 1.07 | 1.01 | 0.977 | 0.864 | 0.996 | 0.468 | 0.426 | 0.407 | 0.402 | 0.389 | 1 | 0.969 | 0.926 | 0.883 | 0.571 | – | – | – | – | –
NCI-H1623 | – | – | – | – | – | 0.518 | 0.587 | 0.41 | 0.551 | 0.57 | 0.901 | 0.917 | 0.698 | 0.756 | 0.703 | – | – | – | – | –
NCI-H1650 | – | – | – | – | – | 0.298 | 0.297 | 0.295 | 0.286 | 0.313 | 1 | 1.21 | 0.989 | 1.14 | 0.658 | 0.914 | 1.09 | 0.927 | 0.944 | 0.879
NCI-H1703 | 0.28 | 0.385 | 0.265 | 0.336 | 0.397 | – | – | – | – | – | 0.335 | 0.338 | 0.383 | 0.289 | 0.341 | 0.665 | 0.872 | 0.815 | 0.73 | 0.217
NCI-H1792 | 0.696 | 0.603 | – | 0.685 | 0.693 | 0.806 | 0.805 | – | 0.677 | 0.498 | – | – | – | – | – | 0.947 | 0.926 | 0.867 | 0.939 | 0.603
NCI-H1793 | 0.859 | 0.625 | – | 0.958 | 0.834 | 0.359 | 0.394 | – | 0.426 | 0.344 | 0.663 | 0.716 | 0.446 | 0.363 | 0.245 | – | – | – | – | –
NCI-H2342 | – | – | – | – | – | 0.312 | 0.339 | 0.297 | 0.33 | 0.363 | 1.22 | 1 | 0.882 | 0.504 | 0.592 | – | – | – | – | –
SW 900 | – | – | – | – | – | 0.664 | 0.409 | 0.641 | 0.496 | 0.791 | 0.79 | 0.552 | 0.928 | 0.687 | 0.821 | – | – | – | – | –
